Measured values from US12064471B2, “Compositions comprising sulforaphane or a sulforaphane precursor and a mushroom extract or powder” (NUTRAMAX LABORATORIES, INC., priority 2012, dated 2024).

Tests used:
[1] = tested on: myrosinase; assay: Conversion of glucoraphanin to sulforaphane by myrosinase, HPLC (Example 4); type: biochemical; conditions: Part 2, 250 mg broccoli seed extract
Procedure: A two-part experiment was conducted to further elucidate the role of ascorbic acid in modulating myrosinase activity. […] A control sample contained no ascorbic acid, and the enzymatic conversion proceeded unassisted by a co-factor. PART 1. […] PART 2. While keeping the amount of broccoli seed extract fixed at 250 mg, the concentration of ascorbic acid was varied from 0.4 mmol/Liter to 3.8 mmol/Liter.

[2] = tested on: myrosinase; assay: Conversion of glucoraphanin to sulforaphane in Simulated Intestinal Fluid (Example 5); type: biochemical, broccoli; conditions: 0.25 to 1.00 mmol/Liter ascorbic acid, 38° C., 2 hours
Procedure: Simulated Intestinal Fluid (SIF) powder, a commercially supplied concentrate closely approximating the human intestinal content in terms of composition, pH and ionic strength, was used. The experiment utilized a USP Dissolution Apparatus 2 (paddles), where into six dissolution vessels 500 mL of Simulated Intestinal Fluid was dispensed, along with 150 mg of freeze-dried broccoli sprout powder as a source of myrosinase. […] Aliquots were withdrawn every 15 minutes and assayed for sulforaphane.

Question: Which “Ascorbic acid concentration up to which myrosinase-promoted conversion increases apparently linearly, followed by leveling off” value [1] does the source give for `O=C1O[C@H]([C@@H](O)CO)C(O)=C1O` [Ascorbic Acid, Ascorbic acid] here?
Answer: The value was “about 2 mmol/L”.

Question: What about the “Sulforaphane yield versus ascorbic acid concentration” value [2] of the same molecule?
Answer: Its value is “direct correlation between larger yield of sulforaphane and higher concentrations of ascorbic acid”.
